The text below walks through data of patent publication US6875760B2 (Novo Nordisk A/S, priority 1999, dated 2005).

T1 sequence (P47871 26-477): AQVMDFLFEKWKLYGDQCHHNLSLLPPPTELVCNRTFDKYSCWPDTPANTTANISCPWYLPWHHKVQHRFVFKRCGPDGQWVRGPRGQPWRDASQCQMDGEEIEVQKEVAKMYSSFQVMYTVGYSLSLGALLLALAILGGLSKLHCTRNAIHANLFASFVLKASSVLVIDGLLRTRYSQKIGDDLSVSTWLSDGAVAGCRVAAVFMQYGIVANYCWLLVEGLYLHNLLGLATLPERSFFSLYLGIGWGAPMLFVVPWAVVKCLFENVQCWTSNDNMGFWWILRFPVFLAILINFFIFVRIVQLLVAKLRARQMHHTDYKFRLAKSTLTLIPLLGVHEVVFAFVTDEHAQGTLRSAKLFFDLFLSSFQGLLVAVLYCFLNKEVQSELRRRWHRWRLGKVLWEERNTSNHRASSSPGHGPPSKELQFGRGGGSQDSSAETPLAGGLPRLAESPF

One test has as its target T1, cloned human glucagon receptor (Homo sapiens, UniProt P47871).
T1 construct: expressed in transfected cells; plasma membrane preparation
The test is described as follows: Glucagon Binding Assay (II). To be noted: plasma membranes of BHK cells expressing the receptor; read-out: Glu Bd Assay (II) IC50.
Take `CCCCOC(=O)c1ccc(NC(=O)N(Cc2ccc(C(=O)NCCC(=O)O)cc2)C2CCCCCC2)cc1`: the IC50 worked out at 217 nM.

For `O=C(O)CCNC(=O)c1ccc(CN(C(=O)Nc2ccc(OC(F)(F)F)cc2)C2CCC3(CC2)SCCS3)cc1` [Example 178, 3-{4-[1-(1,4-Dithiaspiro[4.5]dec-8-yl)-3-(4-trifluoromethoxyphenyl)ureidomethyl]benzoylamino)propionic acid], the IC50 worked out at 999 nM.

For the compound `CC(C)(C)C1CCC(N(Cc2ccc(C(=O)NCCC(=O)O)cc2)C(=O)Nc2cc(Cl)nc(Cl)c2)CC1` (centres unmarked) [Example 103, 3-{4-[1-(4-tert-Butylcyclohexyl)-3-(2,6-dichloropyridin-4-yl)ureidomethyl]benzoylamino)propionic acid], the IC50 came to 150 nM.

In the case of `O=C(Nc1nn[nH]n1)c1ccc(CN(Cc2cccc(Cl)c2)c2ccc(C3CCCCC3)cc2)cc1` [Example 585, 4-{[(3-Chlorobenzyl)-(4-cyclohexylphenyl)amino]methyl}-N-(2H-tetrazol-5-yl)benzamide], the IC50 was determined as 322 nM.

Regarding `O=C(O)CCNC(=O)c1ccc(CN(C(=O)Nc2cc(Cl)cc(Cl)c2)C2Cc3ccccc3C2)cc1` [Example 138, 3-{4-[1-Indan-2-yl-3-(3,5-dichlorophenyl)ureidomethyl]benzoylamino}propionic acid], the IC50 was determined as 637 nM.

For the compound `C[C@@H](C1CCCCC1)N(Cc1ccc(C(=O)NCCC(=O)O)cc1)C(=O)Nc1cc(Cl)cc(Cl)c1` [Example 140, 3-{4-[1-((1S)-1-Cyclohexylethyl)-3-(3,5-dichlorophenyl)ureidomethyl]benzoylamino)propionic acid], the IC50 stood at 574 nM.

On to `CC(C)(C)C1CCC(N(Cc2ccc(C(=O)NCCC(=O)O)cc2)C(=O)Nc2ccc(SC(F)(F)F)cc2)CC1` (centres unmarked) [Example 101, 3-{4-[1-(4-tert-Butylcyclohexyl)-3-(4-trifluoromethylsulfanylphenyl)ureidomethyl]benzoylamino)propionic acid], for which the IC50 stood at 119 nM.

Turning to `CCCCc1ccc(NC(=O)N(Cc2ccc(C(=O)NCCC(=O)O)cc2)C2Cc3ccccc3C2)cc1` [Example 112, 3-{4-[1-(2,3-Dihydro-1H-inden-2-yl)-3-(4-butylphenyl)ureidomethyl]benzoylamino)propionic acid], the IC50 turned out to be 220 nM.

Consider `CC(C)(C)C1CCC(N(Cc2ccc(C(=O)Nc3nn[nH]n3)cc2)C(=O)Nc2cc(Cl)cc(Cl)c2)CC1` (centres unmarked) [Example 172, 4-[1-(4-tert-Butylcyclohexyl)-3-(3,5-dichlorophenyl)ureidomethyl]-N-(2H-tetrazol-5-yl)benzamide], for which the half-maximal inhibitory concentration (IC50) amounted to 7 nM.

For `C[C@H](NC(=O)N(Cc1ccc(C(=O)Nc2nn[nH]n2)cc1)c1ccc(C2CCCCC2)cc1)c1ccccc1` [Example 596, 4-[1-(4-Cyclohexylphenyl)-3-((1S)-1-phenylethyl)ureidomethyl]-N-(2H-tetrazol-5-yl)benzamide], the IC50 is 112 nM.

For `O=C(Nc1nn[nH]n1)c1ccc(CN(C(=O)NCc2ccc(Cl)c(Cl)c2)c2ccc(C3CCCCC3)cc2)cc1` [Example 595, 4-[1-(4-Cyclohexylphenyl)-3-(3,4-dichlorobenzyl)ureidomethyl}-N-(2H-tetrazol-5-yl)benzamide], the IC50 is 39 nM.

For `CC(C)(C)C1CCC(N(Cc2ccc(C(=O)NCCC(=O)O)cc2)C(=O)Nc2cc(C(F)(F)F)cc(C(F)(F)F)c2)CC1` (centres unmarked), the IC50 was determined as 10 nM.

Consider `CC(C)(C)C1CCC(N(Cc2ccc(C(=O)NCc3nn[nH]n3)cc2)C(=O)Nc2cc(Cl)cc(Cl)c2)CC1` (centres unmarked) [Example 173, 4-[1-(4-tert-Butylcyclohexyl)-3-(3,5-dichlorophenyl)ureidomethyl]-N-(2H-tetrazol-5-ylmethyl)benzamide], for which the IC50 was found to be 23 nM.

As to `Cc1ccc(NC(=O)N(Cc2ccc(S(=O)(=O)NCCC(=O)O)cc2)C2CCC(C(C)(C)C)CC2)cc1F` (centres unmarked) [Example 107, 3-{4-[1-(4-tert-Butylcyclohexyl)-3-(3-fluoro-4-methylphenyl)ureidomethyl]benzenesulfonylamino)propionic acid], the IC50 was determined as 1200 nM.

The same test, now with this note: read-out: displacement of the glucagon tracer when screened at 1 μM concentration in the glucagon binding assay II.
As to `CC(C)(C)C1CCC(N(Cc2ccc(C(=O)NCCC(=O)O)cc2)C(=O)NC(=O)Oc2ccccc2)CC1` (centres unmarked) [Example 208, 3-{4-[1-(4-tert-Butylcyclohexyl)-3-(phenoxycarbonyl)ureidomethyl]benzoylamino}propionic acid], the inhibition at 1 µM is > 50%.

The same test, now with this note: screened at 1 μM; library compounds; read-out: displacement of the glucagon tracer when screened at 1 μM concentration in the glucagon binding assay II.
`O=C(O)CCNC(=O)c1ccc(CN(C(=O)Nc2ccc(Cl)c(C(F)(F)F)c2)C2CCC(NC(=O)C(F)(F)F)CC2)cc1` (centres unmarked) [Example 192, 3-(4-{3-(4-Chloro-3-trifluoromethylphenyl)-1-[4-(2,2,2-trifluoroacetylamino)cyclohexyl]ureidomethyl}benzoylamino)propionic acid]: the inhibition at 1 µM is > 50%.

For `O=C(O)CCNC(=O)c1ccc(CN(Cc2ccccc2Cl)CC(c2ccccc2)c2ccccc2)cc1` [Example 143, 3-(4-{[(2,2-Diphenylethyl)-(2-chlorobenzyl)amino]methyl}benzoylamino)propionic acid], the inhibition at 1 µM is > 50%.

On to `COc1ccc(CN(Cc2ccc(C(=O)NCCC(=O)O)cc2)Cc2ccc(C(C)C)cc2)cc1OC` [Example 149, 3-(4-{[(3,4-Dimethoxybenzyl)-(4-isopropylbenzyl)amino]methyl}benzoylamino)propionic acid], for which the inhibition at 1 µM is > 50%.

As for `CC1(C)C2CCC(CN(Cc3ccc(OCCCC(=O)O)cc3)C(=O)Nc3ccc(Cl)c(C(F)(F)F)c3)C1C2` (centres unmarked) [Example 215, 4-{4-[3-(4-Chloro-3-trifluoromethylphenyl)-1-(6,6-dimethylbicyclo[3.1.1]hept-2-ylmethyl)ureidomethyl]phenoxy}butyric acid], the inhibition at 1 µM was > 50%.

`O=C(O)CCNC(=O)c1ccc(CN(Cc2ccc(C(F)(F)F)cc2)C(=O)Nc2ccc(SC(F)(F)F)cc2)s1` [Example 131, 3-{5-[1-(4-Trifluoromethylbenzyl)-3-(4-trifluoromethylsulfanylphenyl)ureidomethyl]thiophene-2-carbonylamino)propionic acid]: the inhibition at 1 µM is > 50%.

Regarding `CCCCOc1ccc(NC(=O)N(Cc2ccc(C(C)(C)C)cc2)Cc2ccc(C(=O)NCCC(=O)O)s2)cc1` [Example 129, 3-{5-[1-(4-tert-Butylbenzyl)-3-(4-butoxyphenyl)ureidomethyl]thiophene-2-carbonylamino)propionic acid], the inhibition at 1 µM is > 50%.

Take `O=C(O)CCNC(=O)c1ccc(CN(Cc2ccc(C(F)(F)F)cc2)C(=O)Nc2ccc3ccccc3c2)s1` [Example 128, 3-{5-[1-(4-Trifluoromethylbenzyl)-3-naphthalene-2-ylureidomethyl]thiophene-2-carbonylamino)propionic acid]: the inhibition at 1 µM is > 50%.

`Cc1cc(C)cc(NC(=O)N(Cc2ccc(C(=O)NCCC(=O)O)cc2)c2ccc(C3CCCCC3)cc2)c1` [Example 186, 3-{4-[1-(4-Cyclohexylphenyl)-3-(3,5-dimethylphenyl)ureidomethyl]benzoylamino}propionic acid]: the inhibition at 1 µM is > 50%.

As for `CC(C)(C)C1CCC(N(Cc2cccc(C(=O)NCCC(=O)O)c2)C(=O)Nc2ccc(OC(F)(F)F)cc2)CC1` (centres unmarked) [Example 134, 3-{3-[1-(4-tert-Butylcyclohexyl)-3-(4-trifluoromethoxyphenyl)ureidomethyl]benzoylamino)propionic acid], the inhibition at 1 µM is > 50%.

`O=C(O)CCN1C(=O)c2ccc(CN(C(=O)Nc3ccc(OC(F)(F)F)cc3)c3ccc4nc(S)sc4c3)cc2C1=O` [Example 228, 3-{5-[1-(2-Mercaptobenzothiazol-6-yl)-3-(4-trifluoromethoxyphenyl)ureidomethyl]-1,3-dioxo-1,3-dihydro-isoindol-2-yl}propionic acid]: the inhibition at 1 µM is > 50%.

For the compound `CC(C)(C)C1CCC(N(Cc2ccc(C(=O)Nc3ccc4c(c3)C(=O)NC4=O)cc2)C(=O)Nc2ccc(Cl)cc2)CC1` (centres unmarked) [Example 166, 4-[1-(4-tert-Butylcyclohexyl)-3-(4-chlorophenyl)ureidomethyl]-N-(1,3-dioxo-2,3-dihydro-1H-isoindol-5-yl)benzamide], the inhibition at 1 µM was > 50%.

With `CC(C)(C)c1ccc(CN(Cc2ccc(C(=O)NCCC(=O)O)s2)C(=O)Nc2ccc3ccccc3c2)cc1` [Example 127, 3-{5-[1-(4-tert-Butylbenzyl)-3-naphthalene-2-ylureidomethyl]thiophene-2-carbonylamino)propionic acid], the inhibition at 1 µM is > 50%.

Regarding `CCCCc1ccc(NC(=O)N(Cc2ccc(C(=O)NCCC(=O)O)cc2)Cc2ccc(C(F)(F)F)cc2)cc1` [Example 118, 3-{4-[1-(4-Trifluoromethylbenzyl)-3-(4-butylphenyl)ureidomethyl]benzoylamino)propionic acid], the inhibition at 1 µM is > 50%.

With `O=C(O)CCNC(=O)c1ccc(CN(C(=O)Nc2ccc(Cl)c(C(F)(F)F)c2)C2C[C@H]2c2ccccc2)cc1` (stereo in doubt) [Example 188, 3-{4-[3-(4-Chloro-3-trifluoromethylphenyl)-1-(2-phenylcyclopropyl)ureidomethyl]benzoylamino}propionic acid], the inhibition at 1 µM was > 50%.

With `O=C(O)CCNC(=O)c1ccc(CN(C(=O)Nc2ccc(Cl)c(C(F)(F)F)c2)c2nc3cc(Cl)c(Cl)cc3[nH]2)cc1` [Example 195, 3-{4-[3-(4-Chloro-3-trifluoromethylphenyl)-1-(5,6-dichloro-1H-benzimidazol-2-yl)ureidomethyl]benzoylamino}propionic acid], the inhibition at 1 µM is > 50%.

For the compound `Cc1cc(C)cc(NC(=O)N(Cc2ccc(OCCCC(=O)O)cc2)C2CCC(C(C)(C)C)CC2)c1` (centres unmarked) [Example 227, 4-{4-[1-(4-tert-Butylcyclohexyl)-3-(3,5-dimethylphenyl)ureidomethyl]phenoxy}butyric acid], the inhibition at 1 µM is > 50%.

Turning to `O=C(O)CCNC(=O)c1ccc(CN(Cc2ccc(Br)cc2)C(=O)Nc2ccc(Cl)c(C(F)(F)F)c2)cc1` [Example 190, 3-{4-[1-(4-Bromobenzyl)-3-(4-chloro-3-trifluoromethylphenyl)ureidomethyl]benzoylamino}propionic acid], the inhibition at 1 µM was > 50%.
